Results taken from US11447535B2, “GLP-1 analogues” (Sun Pharmaceutical Industries Limited, priority 2018, dated 2022).
Marks after values point to notes of the source that are not given here. Where no end group is shown, it is not given here. Moiety B = not defined here

What was measured:
[1] = Food intake and body weight recorded in the rat OGTT study; assay type: in vivo, rats; details: 1 mg/Kg; for Body Weight Change (%) Mean / Food Consumption (g) Mean: Exp. 1
Protocol: (§1) Animals were divided into three groups—a normal control group, a test group and a third semaglutide group, with 4 animals in each group. The animals were fasted for 12 hours before initiation of OGTT. To the test group animals, the Compound 1 was injected subcutaneously at 1 mg/kg dose. To the semaglutide group, a dose of 1 mg/kg was injected subcutaneously. After 22 hrs, 166 hrs and 334 hrs of subcutaneous injection of test drug or semaglutide, blood glucose was measured with blood glucose meter (time 0 measurements). All the animals were then given 2 g/kg of glucose solution orally. Blood glucose was measured at 20, 40, 60, 90 and 120 minutes following glucose challenge. Body weight and food intake was recorded. Blood glucose data was analyzed using Two way ANOVA followed by Bonferroni posttests using PRISM (Graph Pad version 5.03). Data of Blood glucose AUC0-120 min, was analyzed using t test.
as §1, with “animals,” for “animals, the”, “1, Compound 13 and Compound 16 were” for “1 was”, “compound” for “drug”

[2] = system: SD rats; assay: Oral glucose tolerance test (OGTT) in rats; single injection; 1 mg/kg; assay type: in vivo; set-up: Change in AUC (mg/dL*min): unit not given here; details: for Blood Glucose AUC (mg/dL*min) Mean: Exp. 1; for Change in AUC (mg/dL*min): Exp. 1, vs control group
Protocol: as §1
as §1, with “animals,” for “animals, the”, “1, Compound 13 and Compound 16 were” for “1 was”, “compound” for “drug”

[3] = system: db/db mice (diabetic mouse model); assay: Separate db/db diabetic mouse study, q2d*15 up to day 28, recovery period day 29 to day 45; assay type: in vivo; details: for Blood Glucose AUC (Day 30-37) % Change vs Control / Blood Glucose AUC (Day 30-37) (mg/dL*days) Mean / Blood Glucose AUC (Day 38-45) % Change vs Control / Blood Glucose AUC (Day 38-45) (mg/dL*days) Mean: recovery period
Protocol: The study was performed in similar manner as above on diabetic mouse model. The animals were divided into three treatment groups—a diabetic control group, a test group and a semaglutide treatment group. The representative compounds of the present disclosure, Compound 1, Compound 13 and Compound 16, were injected subcutaneously at 3.04 or 6.078 nM dose (every alternate day up to day 28 (q2d*15). The same dosage regimen was administered in semaglutide treatment group. Measurements of blood glucose levels and body weight were done daily. % HbA1c, Insulin was measured on Day 0, day 14 and day 29. Cumulative food intake and body weight change was calculated on day 14 and 29. % HbA1c, Insulin data was analyzed by two way ANOVA followed by Bonferroni's posttests using PRISM (Graph Pad version 5.03). Whereas Blood Glucose AUC, Body weight change and Cumulative food intake data was analyzed by one way ANOVA followed by Bonferroni's posttests using PRISM (Graph Pad version 5.03). From day 29 to day 45, animals were kept on recovery period during which no drug treatment was given. Blood Glucose and Body weight was measured during this period. On day 45, Body weight Changes, % HbA1c, Insulin was measured.

[4] = earlier dose 3.04 nM (3.4 nM given for Compound 16)
[5] = recovery study, day 45, earlier dose 3.04 nM
[6] = recovery study, day 45, earlier dose 6.078 nM (6.0788 nM given for Compound 13)
[7] = OGTT, 1 mg/Kg dose, after 24 hrs

## Compound 13: SEQ ID NO: 05, acylated with Moiety C (HXXXGTFTSDVSSYLXGQAAXEFXAWLVRGRGXX; lipidated side chain; (2)..(2) Xaa = Aib; (3)..(3) Xaa = absent.; (4)..(4) Xaa = Glu.; (16)..(16) Xaa = Glu.; (21)..(21) Lys is substituted; (24)..(24) Xaa is Ile.; (33)..(33) Xaa is Leu.; (34)..(34) Xaa is absent.)
[1]; 48 h
  Body Weight Change (%) Mean: −10.2%
  Food Consumption (g) Mean: 8.4 g
[1]; 154 h
  Body Weight Change (%) Mean: 4.5%
  Food Consumption (g) Mean: 62.3 g
[1]; 324 h
  Body Weight Change (%) Mean: 8.2%
  Food Consumption (g) Mean: 82.44 g
[1]; text on Table 8
  food consumed vs animals administered with semaglutide: consumed significantly less food
[2]; OGTT, 1 mg/Kg, 22 hr
  Blood Glucose AUC (mg/dL*min) Mean: 2795.0 mg·min/dL
  Change in AUC (mg/dL*min): −81.2
[2]; OGTT, 1 mg/Kg, 168 hr
  Blood Glucose AUC (mg/dL*min) Mean: 6950.0 mg·min/dL
  Change in AUC (mg/dL*min): −59.5
[2]; OGTT, 1 mg/Kg, 336 hr
  Blood Glucose AUC (mg/dL*min) Mean: 11368.0 mg·min/dL
  Change in AUC (mg/dL*min): −31.6
[2]; after 168 hrs of injection, 1 mg/kg
  reduction in blood glucose AUC: about 60%
[3]; 3.04 nM, q2d*15
  Blood Glucose AUC (Day 0-29) % Change Vs Control: −43.86%
  Blood Glucose AUC (Day 0-29) (mg/dL*days) Mean: 9515.4*** mg/dL*days
  Body Weight Change Day 29, % Change vs Day 0 Mean: 1.2%
  Cumulative Food Intake (g) Day 0-29 Mean: 75.2 g
[3]; 6.078 nM, q2d*15
  Blood Glucose AUC (Day 0-29) % Change Vs Control: −50.13%
  Blood Glucose AUC (Day 0-29) (mg/dL*days) Mean: 8451.7***## mg/dL*days
  Body Weight Change Day 29, % Change vs Day 0 Mean: −1.1%
  Cumulative Food Intake (g) Day 0-29 Mean: 70.4 g
[3]; Day 0, 3.04 nM, q2d*15
  % HbA1C Mean: 7.7%
  Insulin (ng/mL) Mean: 21.7 ng/mL
[3]; Day 0, 6.078 nM, q2d*15
  % HbA1C Mean: 7.83%
  Insulin (ng/mL) Mean: 26.2 ng/mL
[3]; Day 14, 3.04 nM, q2d*15
  % HbA1C Mean: 6.6* %
  Insulin (ng/mL) Mean: 41.8 ng/mL
[3]; Day 14, 6.078 nM, q2d*15
  % HbA1C Mean: 6.00 *** %
  Insulin (ng/mL) Mean: 61.2*** ng/mL
[3]; Day 29, 3.04 nM, q2d*15
  % HbA1C Mean: 6.4 *** %
  Insulin (ng/mL) Mean: 54.4** ng/mL
[3]; Day 29, 6.078 nM, q2d*15
  % HbA1C Mean: 5.64 *** %
  Insulin (ng/mL) Mean: 59.4*** ng/mL
[3]; about 3 nM and 6 nM dose
  HbA1c, blood glucose, food consumption and body weight vs control: significant reduction
[3]; [4]
  Blood Glucose AUC (Day 30-37) % Change vs Control: −27.93%
  Blood Glucose AUC (Day 30-37) (mg/dL*days) Mean: 2588.7** mg/dL*days
  Blood Glucose AUC (Day 38-45) % Change vs Control: −5.57%
  Blood Glucose AUC (Day 38-45) (mg/dL*days) Mean: 3401.0 mg·days/dL
[3]; earlier dose 6.078 nM
  Blood Glucose AUC (Day 30-37) % Change vs Control: −19.94%
  Blood Glucose AUC (Day 30-37) (mg/dL*days) Mean: 2875.7 mg·days/dL
  Blood Glucose AUC (Day 38-45) % Change vs Control: −6.68%
  Blood Glucose AUC (Day 38-45) (mg/dL*days) Mean: 3361.0 mg·days/dL
[3]; [5]
  % HbA1C Mean: 7.5%
  Delta HbA1C vs. DC: −1.0
  Insulin (ng/mL) Mean: 31.2 ng/mL
[3]; [6]
  % HbA1C Mean: 7.3%
  Delta HbA1C vs. DC: −1.2
  Insulin (ng/mL) Mean: 34.3 ng/mL
[3]; recovery study, earlier dose 3.04 nM
  Body Weight % Change vs Day 45 Mean: 6.6%
[3]; recovery study, earlier dose 6.078 nM (6.0788 nM given for Compound 13)
  Body Weight % Change vs Day 45 Mean: 5.5%

## Compound 6: SEQ ID NO: 10, Moiety B; differs from liraglutide in having an additional Leu at 32nd position (HAEGTFTSDVSSYLEGQAAK(Moiety B)EFIAWLVRGRGL-OH; reading uncertain)
[2]; [7]
  % Glucose Reduction (Blood Glucose AUC0-120 min): 75.8%
  Comp/std Liraglutide (ratio of % glucose reduction): 1.83
[2]; OGTT, 1 mg/Kg, at 24 hrs
  blood glucose lowering effect vs liraglutide: significantly higher than liraglutide
